Experiments:
hERG potassium channel = biological target: T1, hERG potassium channel (Homo sapiens, UniProt Q12809); experiment: Inhibition of hERG potassium channel current, manual patch clamp in CHO cells stably expressing hERG; assay type: cell-based; settings: whole-cell patch clamp, room temperature
T1 construct: expressed in transfected cells; host or cells: CHO (Chinese hamster ovary) cells stably expressing hERG
Description: The electrophysiological manual patch clamp method was used to test the effect of the compounds on the current of hERG potassium channel (human Ether-a-go-go Related Gene potassium channel).
CHO cells stably expressing hERG were cultured in a cell Petri dish having a diameter of 35 mm, placed in an incubator at 37° C. and with 5% CO2, and passaged every 48 hours at a ratio of 1:5. The culture medium formula was: 90% F12 (Invitrogen), 10% fetal bovine serum (Gibco), 100 μg/mL G418 (Invitrogen), and 100 μg/mL Hygromycin B (Invitrogen). On the day of the test, the cell culture medium was sucked away, and the cells were washed with extracellular fluid once. Then 0.25% Trypsin-EDTA (Invitrogen) solution was added, and the cells was digested at room temperature for 3-5 min. The digestive fluid was sucked away, and the cells were resuspended with extracellular fluid, and transferred to the experimental dish for electrophysiological recording.
On the day of test, the compounds were prepared using DMSO into mother solution with concentration of 20 mM, and then serial dilution with DMSO was performed three times, i.e., 10 μL of the solution was added to 20 μL of DMSO, then 10 μL of the serial diluted solution of the compounds in DMSO was added to 4990 μL of extracellular fluid, and 500 times of dilution was performed to obtain the final concentration to be tested.
The hERG potassium channel currents of CHO (Chinese hamster ovary) cells stably expressing hERG potassium channels were recorded using whole-cell patch clamp technique at room temperature. The glass microelectrodes were made from glass electrode blanks (BF150-86-10, Sutter) by pulling through a puller, and the tip resistance was about 2-5 MΩ after filling the electrode with the inner liquid. The glass microelectrodes could be connected to a patch clamp amplifier by inserting them into the amplifier probe. Clamp voltage and data recording were controlled and recorded by a computer using software pClamp 10 with a sampling frequency of 10 kHz and a filtering frequency of 2 kHz. After obtaining a whole-cell recording, the cell was clamped at −80 mV, and the step voltage inducing hERG potassium current (IhERG) was given a depolarizing voltage from −80 mV to +20 mV for 2 s, and repolarized to −50 mV for 1 s, then returning to −80 mV. This voltage stimulus was given every 10 s. After it is determined that the potassium hERG current was stable (for 1 min), the dosing process was initiated. The compounds were administered for at least 1 min at each tested concentration, and at least 2 cells (n≥2) were tested at each concentration.
Data analysis and processing were conducted using softwares pClamp 10, GraphPad Prism 5, and Excel. The degree of inhibitory activity of different compound concentrations on hERG potassium current (peak value of hERG tail current induced at −50 mV) was calculated using the following formula: Inhibition %=[1−(I/Io)]×100%. Among them, Inhibition % represents the percentage inhibition of the compound on hERG potassium current, and I and Io represent the amplitude of hERG potassium current after and before dosing, respectively.
IC50 of the compounds was calculated using software GraphPad Prism 5 by fitting the following equation: Y=Bottom+(Top−Bottom)/(1+10^(Log IC50−X)*HillSlope). Among them, X is the Log value of the detection concentration of test material, Y is the inhibition percentage at the corresponding concentration, and Bottom and Top are the minimum and maximum inhibition percentages, respectively.

[1] = test system: human esophageal squamous carcinoma cell line KYSE-520; experiment: KYSE-520 subcutaneous transplantation tumor model; assay type: in vivo; settings: KYSE-520 subcutaneous tumor, female Balb/C nude mice, 10 mg/kg, PO, QD
Description: The human esophageal squamous carcinoma cell line KYSE-520 was cultured in RPMI 1640 containing 10% fetal bovine serum placed in a 37° C., 5% CO2 sterile incubator. The cells were passaged 2-3 times per week, digested with 0.25% trypsin-EDTA. After terminating the digestion with the above complete medium, the system was centrifugated at 1000 rpm for 5 min. The supernatant was discarded, and the cells were resuspended and passaged at a ratio of 1:3-1:5. Cells in logarithmic phase were collected, resuspended in serum-free RPMI 1640, counted and adjusted to the appropriate density.
KYSE-520 cells (3×10^6 cells/mouse) were inoculated into the right ventral dorsum of approximately 6- to 8-week-old female Balb/C nude mice. Then the tumors grew to an average volume of about 200 mm^3, the tumors were randomly grouped according to the tumor volume and body weight (n=8-10). Administration was started on the day of grouping and was performed once daily, defining the day of grouping as day 0. Tumor diameters were measured twice a week with vernier calipers, and tumor volume was calculated by the formula TV (mm^3)=0.5×a×b^2, with a and b representing the long and short diameters (in mm) of the tumors, respectively. When the average tumor volume of the control group was about 800 mm^3, the experiment was terminated. The tumor tissues were isolated and weighed to calculate the tumor weight proliferation rate with T/Cweight %=TWT/TWC %, and TWT and TWC represent the tumor weight of the administered group and the vehicle control group, respectively.

SHP-2 enzyme = biological target: T2, SHP-2 enzyme (Homo sapiens, UniProt Q06124); experiment: Phosphatase activity assay (Homogeneous Full Length SHP-2 Assay Kit, DiFMUP substrate); assay type: biochemical; settings: full length SHP-2 activated with 0.5 μM SHP-2 activating Peptide; 1 hour co-incubation; DiFMUP 50 μM, 30 min
T2 construct: Homogeneous Full Length SHP-2 Assay Kit (BPS Bioscience #79330); purchased BPS Bioscience 79330
T2 sequence (Q06124 1-593): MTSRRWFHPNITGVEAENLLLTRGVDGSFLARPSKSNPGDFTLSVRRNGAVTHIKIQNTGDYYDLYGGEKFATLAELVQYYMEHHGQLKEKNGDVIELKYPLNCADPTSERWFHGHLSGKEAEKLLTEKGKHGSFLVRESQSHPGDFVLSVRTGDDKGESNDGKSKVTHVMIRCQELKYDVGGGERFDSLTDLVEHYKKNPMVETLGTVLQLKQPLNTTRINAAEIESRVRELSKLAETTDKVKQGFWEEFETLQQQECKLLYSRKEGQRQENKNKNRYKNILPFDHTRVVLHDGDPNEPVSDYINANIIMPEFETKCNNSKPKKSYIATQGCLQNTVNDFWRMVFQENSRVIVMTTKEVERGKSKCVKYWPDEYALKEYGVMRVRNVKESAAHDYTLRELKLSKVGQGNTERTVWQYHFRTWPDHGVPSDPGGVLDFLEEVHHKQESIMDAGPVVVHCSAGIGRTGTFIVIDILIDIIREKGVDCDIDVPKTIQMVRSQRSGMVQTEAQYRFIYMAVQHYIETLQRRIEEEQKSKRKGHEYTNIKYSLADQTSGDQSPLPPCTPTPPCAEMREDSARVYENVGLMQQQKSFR
Description: IC50 values were assayed using Homogeneous Full Length SHP-2 Assay Kit (BPS Bioscience #79330), which uses 6,8-difluoro-4-methylumbelliferone phosphate (DiFMUP) as the reaction substrate. SHP2 enzyme solution (diluted to 0.04 ng/μL with 1*buffer) was mixed with 0.5 μM SHP-2 activating Peptide in a 1*buffer solution containing 2.5 mM DTT to activate PTP. At the same time, DMSO (0.1% (V/V)) or the compounds (concentration: 0.5 nM to 1 μM) were added, mixed and co-incubated for 1 hour. DiFMUP (50 μM, total reaction system volume of 20 μL) was added, and the reaction was started. After 30 min of incubation, the fluorescence intensity of the reaction system (excitation wavelength: 350 nm, emission wavelength: 460 nm) was measured by Tecan Infinite M1000.

MV-4-11 cell = experiment: Cell proliferation assay (Cell Titer-Glo); assay type: cell-based; settings: Homo sapiens, MV4-11, 96 h, inhibition of MV-4-11 cell proliferation; Cell Titer-Glo on day 4
Description: MV 411 cells (20000 cells/well) were inoculated and cultured in 96 (Corning #3916) well plates, and the medium was 80 μL/well (IMDM with 10% fetal bovine serum (FBS), Gibco #10099-141C). After 24 hours of incubation, 20 μL of the compounds of the present invention configured to different concentrations (DMSO final concentration of 0.1% (V/V)) were added. On day 4, 60 μL of Cell Titer-Glo (Promega #G7558) was added to each well and mixed at 80 rpm, 25° C., 15 min, and the fluorescence values were detected by Victor X5 (PE).

T1 sequence (Q12809 whole entry): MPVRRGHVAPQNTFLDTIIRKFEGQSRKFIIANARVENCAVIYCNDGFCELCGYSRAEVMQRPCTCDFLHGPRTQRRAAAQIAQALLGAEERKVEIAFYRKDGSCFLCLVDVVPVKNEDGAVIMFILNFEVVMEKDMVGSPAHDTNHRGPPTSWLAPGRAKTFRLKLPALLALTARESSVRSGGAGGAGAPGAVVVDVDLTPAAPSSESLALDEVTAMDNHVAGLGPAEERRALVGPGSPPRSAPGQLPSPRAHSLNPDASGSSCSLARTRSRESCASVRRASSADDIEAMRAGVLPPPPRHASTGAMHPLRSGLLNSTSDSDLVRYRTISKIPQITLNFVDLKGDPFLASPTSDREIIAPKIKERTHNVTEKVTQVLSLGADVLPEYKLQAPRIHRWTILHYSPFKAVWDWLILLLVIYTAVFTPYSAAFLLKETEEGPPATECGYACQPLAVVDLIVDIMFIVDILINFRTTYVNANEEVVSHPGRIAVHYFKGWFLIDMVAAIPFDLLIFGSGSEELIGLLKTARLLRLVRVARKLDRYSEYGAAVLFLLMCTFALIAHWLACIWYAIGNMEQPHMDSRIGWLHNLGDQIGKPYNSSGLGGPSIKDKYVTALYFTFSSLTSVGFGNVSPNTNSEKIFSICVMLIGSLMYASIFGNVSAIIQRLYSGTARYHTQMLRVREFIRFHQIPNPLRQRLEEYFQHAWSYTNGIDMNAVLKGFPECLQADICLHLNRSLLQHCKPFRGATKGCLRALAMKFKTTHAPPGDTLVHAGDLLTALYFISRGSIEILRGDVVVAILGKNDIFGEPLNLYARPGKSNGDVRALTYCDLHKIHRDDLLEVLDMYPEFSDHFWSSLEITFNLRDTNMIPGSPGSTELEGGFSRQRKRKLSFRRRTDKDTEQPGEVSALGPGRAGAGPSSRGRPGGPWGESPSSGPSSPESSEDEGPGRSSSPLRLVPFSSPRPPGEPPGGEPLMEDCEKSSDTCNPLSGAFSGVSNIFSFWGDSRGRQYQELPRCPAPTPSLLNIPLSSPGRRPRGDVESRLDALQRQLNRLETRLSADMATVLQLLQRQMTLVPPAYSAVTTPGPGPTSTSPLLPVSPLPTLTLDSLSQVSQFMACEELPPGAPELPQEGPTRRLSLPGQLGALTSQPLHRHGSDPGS

Row | SMILES | IC50 (hERG potassium channel) | T/Cweight (tumor weight proliferation rate) [1] | IC50 (SHP-2 enzyme) | IC50 (MV-4-11 cell)
1 | Nc1nc2c(s1)CN(C(=O)c1ncc(N3CCC4(CC3)Cc3ccccc3[C@H]4N)nc1N)CC2(F)F [Compound 63] | > 30000 nM | 28.94% | 3 nM | < 5 nM
2 | [2H]C1([2H])CN(C(=O)c2ncc(N3CCC4(CC3)Cc3ccccc3C4N)nc2N)Cc2sc(N)nc21 (stereo not drawn) [Compound 108] | > 30000 nM |  | 3 nM | 8 nM
3 | [2H]C1([2H])CN(C(=O)c2ncc(N3CCC4(CC3)Cc3ccc(OC)cc3C4N)nc2N)Cc2sc(N)nc21 (stereo not drawn) [Compound 70] | > 30000 nM | 35.04% |  | 25 nM
4 | Nc1nc2c(s1)CN(C(=O)c1ncc(N3CCC4(CC3)Cc3cc(F)ccc3C4N)nc1N)CC2(F)F (stereo not drawn) [Compound 114] | > 30000 nM | 39.69% | 7 nM | 7 nM
5 | COc1ccc2c(c1)C(N)C1(CCN(c3cnc(C(=O)N4Cc5sc(N)nc5C(F)(F)C4)c(N)n3)CC1)C2 (stereo not drawn) [Compound 125] | > 30000 nM |  | 10 nM | 
6 | Nc1nc(N2CCC3(CC2)Cc2cc(F)ccc2C3N)nnc1C(=O)N1CCCn2nccc21 (stereo not drawn) [Compound 59] | > 30000 nM |  | 6 nM | 253 nM
7 | COc1ccc2c(c1)C(N)C1(CCN(c3cnc(C(=O)N4CCc5nc(N)sc5C4)c(N)n3)CC1)C2 (stereo not drawn) [Compound 82] | > 30000 nM |  | 4 nM | 25 nM
8 | Nc1ccc2c(n1)CCN2C(=O)c1ncc(N2CCC3(CC2)Cc2ccccc2C3N)nc1N (stereo not drawn) [Compound 60] |  | 44.62% | 4 nM | 46 nM
9 | Nc1nc2c(s1)CN(C(=O)c1cnc(N3CCC4(CC3)Cc3ccccc3C4N)c(CO)n1)CC2(F)F (stereo not drawn) [Compound 126] | > 30000 nM |  | 6 nM | 
10 | Nc1nc(N2CCC3(CC2)Cc2ccccc2C3N)cnc1C(=O)N1CCc2nc(F)ccc21 (stereo not drawn) [Compound 80] |  |  | 4 nM | 127 nM
11 | Nc1nc(N2CCC3(CC2)Cc2ccccc2C3N)nnc1C(=O)N1CCCn2nccc21 (stereo not drawn) [Compound 45] |  |  | 7 nM | 176 nM
12 | Cc1ccc2c(c1)C(N)C1(CCN(c3cnc(C(=O)N4Cc5sc(N)nc5C(C)(C)C4)c(N)n3)CC1)C2 (stereo not drawn) [Compound 102] |  |  | 11 nM | 57 nM
13 | Nc1nc2c(s1)CN(C(=O)c1ncc(N3CCC4(CC3)Cc3ccccc3C4N)nc1N)CC2(F)F (stereo not drawn) [Compound 127] |  |  | 7 nM | 13 nM
14 | Nc1nc2c(s1)CN(C(=O)c1cnc(N3CCC4(CC3)Cc3ccc(F)cc3C4N)c(CO)n1)CC2(F)F (stereo not drawn) [Compound 118] |  |  | 6 nM | 5 nM
15 | COc1ccc2c(c1)C(N)C1(CCN(c3cnc(C(=O)N4CCCn5nccc54)c(N)n3)CC1)C2 (stereo not drawn) [Compound 5] |  |  | 1 nM | 220 nM

Source: patent publication US20240025924A1, “HETEROCYCLE SUBSTITUTED KETONE DERIVATIVE, AND COMPOSITION AND MEDICINAL USE THEREOF” (SHANGHAI HAIYAN PHARMACEUTICAL TECHNOLOGY CO., LTD., priority 2021, published 2024)
